Test results from patent US7943175B2, “Calixarene based dispersible colloidal systems in the form of nanoparticles” (Nanoport S.A., priority 2001, dated 2011).

System: embryo insect cells (trichiopusia ni)
Test: Toxicity test on embryo insect cells
Type: cell-based
Excerpt: Second, p-dodecanoyl-calix[4]arene has been tested on embryo insect cells (trichiopusia ni). Viability values of more than 80% have been found.

Q: How did the Viability turn out when `CCCCCCCCCCCC(=O)c1cc2c(O)c(c1)Cc1cc(C(=O)CCCCCCCCCCC)cc(c1O)Cc1cc(C(=O)CCCCCCCCCCC)cc(c1O)Cc1cc(C(=O)CCCCCCCCCCC)cc(c1O)C2` [p-dodecanoyl-calix[4]arene] was run?
A: Its Viability is “more than 80%”.
